We go through 3 molecules from article PMC8658989, “Synthesis and Biological Studies on (KLAKLAK)2-NH2 Analog Containing Unnatural Amino Acid β-Ala and Conjugates with Second Pharmacophore” (Molecules, 2021).

Where “and” joins values, the source holds several entries; their conditions need not be identical. Equal values may be shown once. Read-outs that look alike come from different tables or passages of the source. No end group written: not given here.

Data set [1] concerns MCF-7. Set-up: method as in PMID 33567789. The note with it: MTT; data already published; ref [25]; read-out: IC50 of Mean ± SD Antiproliferative Activity MCF-7; cited from earlier work.
The subject of data set [2] is MDA-MB-231. As to the kind of experiment: Antiproliferative activity, MTT dye-reduction assay, MDA-MB-231. The class given is cell-based, human. As to conditions: for SI ± SD MDA-MB-231 (selective index): SI = IC50 of MCF-10A/IC50 of MDA-MB-231. The method, then:
(§1) The compounds were studied for antiproliferative activity by MTT dye-reduction assay. Cell cultures from different cell lines (MCF-10A, MCF-7 and MDA-MB-231) were incubated with the test substances at a concentration of 15 to 2000 μM for 72 h at 37 °C, 5% CO2 and 95% humidity. The antiproliferative activity expressed in % relative to the negative control was determined.
(§2) The antiproliferative activity testing was performed on cell cultures from several human cell lines using the standard MTT dye-reduction assay, described by Mosmann. The assay is based on the metabolism of the tetrazolium salt 3-(4,5-dimethylthiazol-2-yl)-2,5-diphenyltetrazolium bromide (MTT) to insoluble formazan by mitochondrial reductases. The formazan concentration can be determined spectrophotometrically. The measured absorption is an indicator of cell viability and metabolic activity. The following cell lines were used in the experiments: mammary gland type A adenocarcinoma ER+, PR+ and HER2− (MCF-7); triple-negative breast cancer ER−, PR−, and HER2− (MDA-MB-231); and breast, nontumorigenic epithelial cell line (MCF-10A). The cell lines were routinely grown as monolayers in 75 cm^2 tissue culture flasks under standard conditions (described above). Cells were plated at a density of 1 × 10^3 cells in 100 µL in each well of 96-well flat-bottomed microplates and allowed to adhere for 24 h before treatment with test compounds. A concentration range from 15 to 2000 μM was applied for 72 h. Formazan absorption was registered using a microplate reader at λ = 540 nm. Antiproliferative activities were expressed as IC50 values (concentrations required for 50% inhibition of cell growth), calculated using nonlinear regression analysis (GraphPad Prism 4 Software, https://www.graphpad.com).

Data set [3] deals with MCF-10A. On the set-up: method as in PMID 33567789. As to conditions: MTT; data already published; ref [25]; read-out: IC50 of Mean ± SD Antiproliferative Activity MCF-10A; cited from earlier work.
Data set [4] concerns MCF-7. Kind of data set: Antiproliferative activity, MTT dye-reduction assay, MCF-7. The note with it: for SI ± SD MCF-7 (selective index): SI = IC50 of MCF-10A/IC50 of MCF-7. The class given is cell-based, human. The method, then: as §1, §2
Data set [5] relates to MDA-MB-231. On the set-up: method as in PMID 33567789. As to conditions: MTT; data already published; ref [25]; read-out: IC50 of Mean ± SD Antiproliferative Activity MDA-MB-231; cited from earlier work.
The next data set relates to Bacillus subtilis 3562. As to the kind of experiment: Antimicrobial assay, agar/disc diffusion, B. subtilis. The class given is cell-based. The note with it: 6 μL of 20 μM solution on 6 mm paper disc, 24 h. On the procedure: (§3) The microbial cultures were placed in a thin layer on sterile plates. On sterile paper discs, 6 μL of 20 μM solutions in distilled water of the test compounds was placed. Further, the discs were incorporated into a thin layer of sterile plates (Figure 3). The studies were triplicates for each concentration, and the diameters of the obtained zones represent the average value of the three results.
(§4) All newly synthesized derivatives of (KLAKLAK)2-NH2 at concentrations of 20 μM in distilled water were tested against model strains E. coli NBIMCC K12 407, B. subtilis NBIMCC 3562 and C. albicans NBIMCC 74. The strains were obtained from the National Bank for Industrial Microorganisms and Cell Cultures (NBIMCC, Sofia, Bulgaria). Exponential cultures (1 × 10^7 cfu/mL) of strains E. coli K12 407 were obtained in Luria-Bertani (LB, HiMedia, Mumbai, India); for B. subtilis 3562, an initial bacterial concentration of 1 × 10^6 cfu/mL was obtained in nutrient broth (NB, HiMedia, Mumbai, India); and for C. albicans 74, and initial bacterial concentration of 1 × 10^5 cfu/mL was obtained in yeast mold (YM) medium. Cultivation was performed in an ES-20/60 incubator shaker (Biosan, Riga, Latvia) at 30 °C for B. subtilis 3562 and at 37 °C for E. coli K12 407 and C. albicans 74 with shaking at 220 rpm for 24 h. The agar diffusion method was applied to determine the antimicrobial activity of the tested compounds. LB/NB/YM plates were inoculated by spreading 100 μL of each microbial culture on their surface, followed by incubation at 30/37 °C for penetration of suspension into the agar. After 30 min, sterile paper discs (6 mm in diameter) were soaked with the tested compounds in amounts of 6 µL and placed on the surface of agar Petri dishes. The plates were incubated at 30/37 °C for 24 h. Antimicrobial activity was assessed by measuring the diameter of the obtained inhibition zones. Sterile paper discs soaked with water were used as blank controls. Mean values were calculated by performing the experiments in triplicates.

In a further data set the test system is Escherichia coli K12 407. Kind of data set: Antimicrobial assay, agar/disc diffusion, E. coli. The class given is cell-based. The note with it: 6 μL of 20 μM solution on 6 mm paper disc, 24 h. The method, then: as §3, §4
A short description of data set [6]: Hydrolytic stability in model buffer solutions by HPLC. The class given is physicochemical. The note with it: 72 h, model buffer solutions pH 2, pH 7.4 and pH 9, HPLC. The method, then:
HPLC profiles of all target compounds at three different pH values that mimic human pH in the stomach (pH 2), blood plasma (pH 7.4) and small intestine (pH 9) are presented in the Supplementary Materials.
The designed changes in the structures, i.e., C-terminal amide modification, as well as the introduction of a β-Ala moiety, lead to complete stability of the target compounds during the test period in all model conditions.
The obtained solution was made up to 1000.0 mL with dH2O; • (ii) Buffer with pH 7.4–2.38 g Na2HPO4, 0.19 g KH2PO4 and 8.0 g NaCl was dissolved in dH2O. The obtained solution was made up to 1000.0 mL with dH2O. • (iii) Buffer with pH 9.0–1000.0 mL of solution I was mixed with 420.0 mL of solution II. Solution I: 6.18 g of H3BO3 was dissolved in 0.1 mol/L KCl, and it was made up to 1000.0 mL with the same solvent; Solution II: 0.1 mol/L NaOH.

The subject of data set [7] is MCF-10A. Kind of data set: Antiproliferative activity, MTT dye-reduction assay, MCF-10A. The class given is cell-based, human. The note with it: 72 h, read-out: IC50 of Mean ± SD Antiproliferative Activity MCF-10A. The method, then:
as §1
MCF-10A is a reliable model for normal human mammary epithelial cells, which serves as a control in experiments to determine antitumor activity.
as §2

In the next data set the test system is Candida albicans 74. Kind of data set: Antimicrobial assay, agar/disc diffusion, C. albicans. The class given is cell-based. The note with it: 6 μL of 20 μM solution on 6 mm paper disc, 24 h. The method, then: as §3, §4
Data set [8] in a line: In vitro cytotoxicity, 3T3 NRU test. The class given is cell-based. The note with it: mouse, BALB/3T3 clone A31 mouse embryo cells, 24 h incubation, 15 to 2000 μM, read-out: IC50 of Mean ± SD Cytotoxicity BALB 3T3 (CC50). The method, then:
The newly synthesized compounds were studied for cytotoxicity assessment by an in vitro 3T3 NRU test. The cells were incubated with the test substances at a concentration of 15 to 2000 μM for 24 h at 37 °C, 5% CO2 and 95% humidity. The cytotoxicity expressed in % relative to the negative control was determined.
The cytotoxicity testing was performed as described by Borenfreund et al. and the latest modification of the validated BALB/3T3 clone A31 Neutral Red Uptake Assay (3T3 NRU test). BALB/3T3 clone A31 mouse embryo cells were grown as a monolayer in 75 cm^2 tissue culture flasks in high-glucose DMEM (4.5 g/L), supplemented with 10% FBS and antibiotics. Cultures were maintained at 37.5 °C in a humidified atmosphere under 5% CO2. Cells were plated at a density of 1 × 10^4 cells in 100 μL culture medium in each well of 96-well flat-bottomed microplates and allowed to adhere for 24 h before treatment with test compounds, dissolved in DMSO and further diluted in culture medium. A wide concentration range was applied (from 15 to 2000 μM), and the cells were incubated for an additional 24 h. After treatment with Neutral Red medium, washing and application of the ethanol/acetic acid solution (NR Desorb), the absorption was measured on a TECAN microplate reader at wavelength 540 nm. The data obtained are on average from three independent experiments ± SD, n = 6.

For the molecule `CC(C)C[C@H](NC(=O)[C@H](CCCCN)NC(=O)[C@H](C)NC(=O)[C@H](CC(C)C)NC(=O)[C@H](CCCCN)NC(=O)[C@H](CCCCN)NC(=O)[C@H](C)NC(=O)[C@H](CC(C)C)NC(=O)[C@H](CCCCN)NC(=O)[C@H](C)NC(=O)[C@H](CC(C)C)NC(=O)[C@@H](N)CCCCN)C(=O)N[C@@H](C)C(=O)N[C@@H](CCCCN)C(N)=O` [Si1, (KLAKLAK)2-NH2], the IC50 with MCF-7 [1] is 124 ± 8.12 µM; with MCF-10A [3], 154 ± 6.53 µM; with MDA-MB-231 [5], 746 ± 7.6 µM. The “SI ± SD MDA-MB-231 (selective index)” value in the data set with MDA-MB-231 [2] is given as 0.206 ± 0.007. The “SI ± SD MCF-7 (selective index)” value with MCF-7 [4] turned out to be 1.243 ± 0.052.

In the case of `CC(C)C[C@H](NC(=O)[C@H](CCCCN)NC(=O)/C=C/c1ccc(O)c(O)c1)C(=O)N[C@@H](C)C(=O)N[C@@H](CCCCN)C(=O)N[C@@H](CC(C)C)C(=O)N[C@@H](C)C(=O)N[C@@H](CCCCN)C(=O)N[C@@H](CCCCN)C(=O)N[C@@H](CC(C)C)C(=O)N[C@@H](C)C(=O)N[C@@H](CCCCN)C(=O)N[C@@H](CC(C)C)C(=O)N[C@@H](C)C(=O)N[C@@H](CCCCN)C(N)=O` [Si10, Caf-(KLAKLAK)2-NH2], the melting point lay within 122 to 124 °C. In the data set with Bacillus subtilis 3562, the “Inhibition zones size, Bacillus subtilis 3562” value is 12.66 ± 0.31 mm. Besides, the “Inhibition zones size, Escherichia coli K12 407” value with Escherichia coli K12 407 is listed as 13.33 ± 0.33 mm. Also, in data set [6], the Hydrolytic stability entry is reported as “complete hydrolytic stability”. For the same molecule, the IC50 in the data set on MCF-10A [7] was found to be 72.5 ± 4.69 µM. In addition, in the data set on MDA-MB-231 [2] (MTT, 72 h, read-out: IC50 of Mean ± SD Antiproliferative Activity MDA-MB-231), the IC50 came out at 177 ± 2.79 µM. Further, the “SI ± SD MDA-MB-231 (selective index)” value in the data set with MDA-MB-231 [2] is reported as 0.411 ± 0.023. Besides, in the data set on MCF-7 [4] (MTT, 72 h, read-out: IC50 of Mean ± SD Antiproliferative Activity MCF-7), the IC50 is 50.5 ± 1.66 µM. In the data set with MCF-7 [4], the “SI ± SD MCF-7 (selective index)” value was 1.4 ± 0.072 and 1.44. Further, the “SI ± SD MCF-7 (selective index)” value in the data set on MCF-7 [4] (listed as Si 10) is recorded as 1.436 ± 0.072. Further, the “Inhibition zones size, Candida albicans 74” value in the data set on Candida albicans 74 came to 17.66 ± 0.41 mm. Besides, in [8], the CC50 at 24 h came out at 173 ± 8.51 µM.

Turning to KLAKLAK-NH2 [Si6], the IC50 in the data set on MCF-7 [1], with MCF-10A [3] and in the data set with MDA-MB-231 [5] was above 2000 µM in each case.
